Data taken from US8058306B2, “Phenyl pyrrole aminoguanidine derivatives” (Action Pharma A/S, priority 2006, dated 2011).

Assays:
murine MC1 receptor = target: T1, murine MC1 receptor (Mus musculus, UniProt Q01727); assay: [125I]-NDP-MSH radio-ligand binding, MC1 receptor (B16-F1 melanoma cells); conditions: 90 min/22° C.
T1 construct: murine B16-F1 melanoma cells expressing MC1, but not other MC receptors, were used; endogenous in cells; host or cells: murine B16-F1 melanoma cells
Description: (§1) Determination of binding affinities for MC receptors was performed by [^125I]-[Nle4,D-Phe7]α-MSH ([^125I]-NDP-MSH) radio-ligand binding. In short, murine B16-F1 melanoma cells expressing MC1, but not other MC receptors, were used for binding affinity studies against the murine MC1 receptor (Siegrist et al.; 1988, J. Recept. Res., 8(1-4):323-43). For human MC3, MC4 and MC5 receptor affinities human recombinant CHO cells were used (Schioth et al. 1997, Neuropeptides 31:565-71, 1997). Cells were suspended in HEPES buffer and by use of microwell plates radio-ligands, as well as test compound, in the concentration range of 10^−10 to 10^−6 were added. After incubation at 37° C. (22° C. for the MC1 receptor assay) separation of bound and free [^125I]-NDP-MSH was done by multiple washings with buffer.
(§2) The results were expressed as a percent of control specific binding obtained in the presence of the test compounds. The IC50 values (concentration causing a half-maximal inhibition of control specific binding) and Hill coefficients (nH) were determined by non-linear regression analysis of the competition curves using Hill equation curve fitting. The inhibition constants (Ki) were calculated from the Cheng Prusoff equation (Ki=IC50/(1+(L/KD)), where L=concentration of radio-ligand in the assay, and KD=affinity of the radio-ligand for the receptor).

human MC5 receptor = target: T2, human MC5 receptor (Homo sapiens, UniProt P33032); assay: [125I]-NDP-MSH radio-ligand binding, MC5 (h) receptor (recombinant CHO cells); conditions: 60 min/37° C.
T2 construct: expressed in transfected cells; host or cells: CHO cells
T2 sequence (P33032 whole entry): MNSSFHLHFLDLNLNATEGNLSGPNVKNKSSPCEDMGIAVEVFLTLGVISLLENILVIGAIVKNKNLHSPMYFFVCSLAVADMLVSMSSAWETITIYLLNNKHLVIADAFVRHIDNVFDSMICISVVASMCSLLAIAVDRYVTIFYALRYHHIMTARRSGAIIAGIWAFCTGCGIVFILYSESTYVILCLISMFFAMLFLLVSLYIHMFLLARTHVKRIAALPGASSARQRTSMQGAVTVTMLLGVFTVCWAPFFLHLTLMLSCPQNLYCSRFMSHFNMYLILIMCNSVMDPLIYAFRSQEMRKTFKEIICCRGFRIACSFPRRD
Description: as §1, §2

human MC3 receptor = target: T3, human MC3 receptor (Homo sapiens, UniProt P41968); assay: [125I]-NDP-MSH radio-ligand binding, MC3 (h) receptor (recombinant CHO cells); conditions: 60 min/37° C.
T3 construct: expressed in transfected cells; host or cells: CHO cells
T3 sequence (P41968 whole entry): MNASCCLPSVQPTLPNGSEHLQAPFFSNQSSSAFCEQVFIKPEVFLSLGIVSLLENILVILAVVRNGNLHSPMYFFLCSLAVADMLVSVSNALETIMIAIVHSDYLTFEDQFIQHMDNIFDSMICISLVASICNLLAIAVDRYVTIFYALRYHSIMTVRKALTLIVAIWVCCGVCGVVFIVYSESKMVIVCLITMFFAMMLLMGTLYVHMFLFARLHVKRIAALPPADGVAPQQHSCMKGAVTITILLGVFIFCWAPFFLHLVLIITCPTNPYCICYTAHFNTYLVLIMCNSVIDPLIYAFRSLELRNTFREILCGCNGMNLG
Description: as §1, §2

human MC4 receptor = target: T4, human MC4 receptor (Homo sapiens, UniProt P32245); assay: [125I]-NDP-MSH radio-ligand binding, MC4 (h) receptor (recombinant CHO cells); conditions: 120 min/37° C.
T4 construct: expressed in transfected cells; host or cells: CHO cells
T4 sequence (P32245 whole entry): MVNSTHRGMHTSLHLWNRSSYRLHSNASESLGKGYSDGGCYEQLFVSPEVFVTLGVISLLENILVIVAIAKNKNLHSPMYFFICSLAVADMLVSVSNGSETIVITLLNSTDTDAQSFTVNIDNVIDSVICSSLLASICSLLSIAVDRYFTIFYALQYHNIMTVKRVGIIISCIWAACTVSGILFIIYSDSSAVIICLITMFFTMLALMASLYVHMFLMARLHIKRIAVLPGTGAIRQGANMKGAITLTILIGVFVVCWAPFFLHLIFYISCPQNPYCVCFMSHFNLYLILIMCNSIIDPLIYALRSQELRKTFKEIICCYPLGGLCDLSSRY
Description: as §1, §2

Measured: Ki

T1 sequence (Q01727 whole entry): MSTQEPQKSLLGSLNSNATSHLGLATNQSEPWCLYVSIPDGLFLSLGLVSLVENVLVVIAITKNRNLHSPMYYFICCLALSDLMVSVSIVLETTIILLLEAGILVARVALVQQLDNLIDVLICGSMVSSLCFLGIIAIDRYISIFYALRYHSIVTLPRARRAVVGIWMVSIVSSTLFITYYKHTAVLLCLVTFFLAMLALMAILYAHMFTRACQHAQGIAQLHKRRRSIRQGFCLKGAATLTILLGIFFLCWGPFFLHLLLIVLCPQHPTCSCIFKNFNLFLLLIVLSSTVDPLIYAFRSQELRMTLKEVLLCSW

N=C(N)NN=Cc1cccn1-c1ccc(Cl)cc1 [Reference-compound 1, [1-[4-chlorophenyl)-1H-pyrrol-2-yl-methyleneamino]guanidinium acetate, reference compound]
> 1000 nM: all assays above

N=C(N)NN=Cc1cccn1-c1ccccc1[N+](=O)[O-] [Reference-compound 2, [1-[2-nitrophenyl)-1H-pyrrol-2-yl-methyleneamino]guanidinium acetate, reference compound]
> 1000 nM: all assays above
